# Results reported in ChEMBL document CHEMBL4130612, “Anti-Inflammatory Prenylated Phenylpropenols and Coumarin Derivatives from Murraya exotica” (J Nat Prod, 2018).
# System: BV-2
# Test: Antiinflammatory activity in mouse BV2 cells assessed as inhibition of LPS-induced nitric oxide production after 24 hrs by griess assay
# Format: functional, cell-based
# Conditions: BV-2, 24 h
row,IC50,Structure (SMILES)
1,21.3 µM,C=C(C)[C@H](OC(=O)CC(C)C)[C@H](O)c1c(OC)ccc2ccc(=O)oc12
2,37.6 µM,COc1ccc2ccc(=O)oc2c1C(=O)C(OC(=O)CC(C)C)=C(C)C
3,26.4 µM,C=C(C)[C@H](O)[C@H](OC(=O)CC(C)C)c1c(OC)ccc2ccc(=O)oc12
4,37.6 µM,C=C(C)[C@@H]1O[C@H](C(=C(C)C)c2c(OC)ccc3ccc(=O)oc23)O[C@@H]1c1c(OC)ccc2ccc(=O)oc12
5,28.9 µM,C=C(C)[C@H](O)[C@H](C[C@@](C)(O)/C=C/c1c(OC)ccc2ccc(=O)oc12)c1c(OC)ccc2ccc(=O)oc12

# More lines, now with the values behind:
row,Structure (SMILES),IC50
1,C=C(C)C(O)Cc1c(OC)cc(OC)c2ccc(=O)oc12 (stereo unspecified),15.5 µM
2,OC/C=C/c1ccc(O)c(/C=C/[C@@]23CCC(CO)=C[C@H]2c2cc(/C=C/CO)ccc2O[C@H]3O)c1,> 50 µM
3,C=C(C)/C=C/c1c(OC)ccc2ccc(=O)oc12,11.8 µM
4,OC/C=C/c1ccc(O)c(/C=C/[C@]23CCC(CO)=C[C@H]2c2cc(/C=C/CO)ccc2O[C@H]3O)c1,8.6 µM
5,COc1ccc2ccc(=O)oc2c1/C=C\C(C)=O,16.9 µM
6,O=c1c(O)c(-c2ccc(O)c(O)c2)oc2cc(O)cc(O)c12 [QUERCETIN],7.2 µM
